Read-outs that look alike come from different tables or passages of the source.
Assay: Swimming test according to Porsolt (forced swim, motor activity / immobility phases)
Assay type: in vivo
Details: Ratte; for minimal effective dose: read-out: niedrigste, bereits wirksame Dosis
Description: Die erfindungsgemäßen Verbindungen der Formel I zeigen zum Beispiel im Schwimm-Test nach Porsolt eine gute dosisabhängige antidepressive Wirkung.
Der Schwimm-Text an der Ratte erfolgt in Anlehnung an die Methode von Porsolt (Porsolt, R.D., A. Bertin and M. Ialfre, 1977, Behavioral despair in mice, Arch. Intern. Pharmacodyn. Ther. 229, 327): Hierzu werden Ratten einzeln in einen mit Wasser gefüllten Plastikbehälter gesetzt. Die Höhe des Behälters ist 30 cm, die Länge beträgt 35 cm und die Breite 20 cm. Das Wasser hat eine Temperatur von 25° C und die Tiefe ist 20 cm. Die Schwimmaktivitäts- beziehungsweise die Immobilisationsphasen der Tiere werden mit Hilfe eines motor activity meters über 15 Minuten in einem Abstand von 1 Minute (Impulse/Min.) registriert. Im Normalfall (das heißt ohne Antidepressivum) machen die Tiere nur für kurze Zeit Schwimmbewegungen und lassen sich dann treiben. Die Zunahme der Aktivitäts- beziehungsweise Abnahme der Immobilisationsphasen (die Tiere schwimmen nicht, sondern lassen sich treiben) gilt als Maß für die antidepressive Wirkung einer Substanz. Die antidepressive Wirkung wird als Wirkung in % für eine bestimmte Dosis antidepressive Wirksubstanz angegeben bezogen auf eine Kontrollgruppe, die keine Wirkstubstanz bekommen hat.

Clc1cccc(SC2CCNCC2)n1 [Anpirtolin, 6-Chlor-2-piperidyl-(4)-thio-pyridin]
antidepressive Wirkung (Wirkung in %) (Dosis 6 mg/kg Körpergewicht, intraperitoneale Applikation, relative to control group without active substance): 50% | minimal effective dose (oral): 20 mg/kg | minimal effective dose (iv, intravenös): 0.5 mg/kg
